Data reported in the NIST ThermoML archive (doi:10.1021/acs.jced.6b00542).

Test: xn = mol fraction of the nth substance listed
Conditions: for surface tension liquid-gas: 294.5 K, Pendant drop shape; for speed of sound: 100 kPa, Frequency=3 MHz, Sing-around technique in a fixed-path interferometer; for speed of sound / viscosity / mass density: Liquid; for viscosity / mass density: 102 kPa; for viscosity: Concentric cylinders viscometry; for mass density: Vibrating tube method

CCCCCCCCCCCCCCCCC [heptadecane] + CCCCc1ccccc1
Conditions | surface tension liquid-gas [mN/m]
x2 = 0.1662 | 27.6
x2 = 0.3047 | 27.7
x2 = 0.4587 | 28
x2 = 0.6419 | 28.2
x2 = 0.7515 | 28.3
x2 = 0.8742 | 29.2

Conditions | mass density [kg/m3] | speed of sound [m/s] | viscosity [mPa·s]
303.15 K, x2 = 0 | 771.02 | 1330.9 | 3.25
303.15 K, x2 = 0.1662 | 777.94 | 1325.3 | 2.73
303.15 K, x2 = 0.3047 | 784.91 | 1321.4 | 2.35
303.15 K, x2 = 0.4587 | 794.08 | 1316.9 | 1.96
303.15 K, x2 = 0.6419 | 808.08 | 1312.4 | 1.56
303.15 K, x2 = 0.7515 | 818.66 | 1311.3 | 1.35
303.15 K, x2 = 0.8742 | 833.23 | 1311 | 1.13
313.15 K, x2 = 0 | 764.16 | 1294.5 | 2.61
313.15 K, x2 = 0.1662 | 771 | 1289 | 2.23
313.15 K, x2 = 0.3047 | 777.87 | 1285 | 1.94
313.15 K, x2 = 0.4587 | 786.92 | 1280.3 | 1.64
313.15 K, x2 = 0.6419 | 800.73 | 1275.9 | 1.32
313.15 K, x2 = 0.7515 | 811.14 | 1274.1 | 1.15
313.15 K, x2 = 0.8742 | 825.49 | 1273.6 | 0.967
323.15 K, x2 = 0 | 757.3 | 1258.8 | 2.14
323.15 K, x2 = 0.1662 | 764.03 | 1253.3 | 1.85
323.15 K, x2 = 0.3047 | 770.84 | 1249.2 | 1.62
323.15 K, x2 = 0.4587 | 779.75 | 1244.5 | 1.39
323.15 K, x2 = 0.6419 | 793.34 | 1239.7 | 1.14
323.15 K, x2 = 0.7515 | 803.6 | 1237.6 | 1
323.15 K, x2 = 0.8742 | 817.71 | 1236.6 | 0.844
333.15 K, x2 = 0 | 750.45 | 1223.8 | 1.79
333.15 K, x2 = 0.1662 | 757.11 | 1218.1 | 1.56
333.15 K, x2 = 0.3047 | 763.79 | 1214 | 1.38
333.15 K, x2 = 0.4587 | 772.56 | 1209.1 | 1.2
333.15 K, x2 = 0.6419 | 785.94 | 1204 | 0.981
333.15 K, x2 = 0.7515 | 796.02 | 1201.6 | 0.865
333.15 K, x2 = 0.8742 | 809.9 | 1200.1 | 0.747
343.15 K, x2 = 0 | 743.7 | – | 1.52
343.15 K, x2 = 0.1662 | 750.12 | – | 1.33
343.15 K, x2 = 0.3047 | 756.65 | – | 1.19
343.15 K, x2 = 0.4587 | 765.4 | – | 1.04
343.15 K, x2 = 0.6419 | 778.47 | – | 0.861
343.15 K, x2 = 0.7515 | 788.4 | – | 0.768
343.15 K, x2 = 0.8742 | 802 | – | 0.671
353.15 K, x2 = 0 | 736.8 | – | 1.3
353.15 K, x2 = 0.1662 | 743.1 | – | 1.16
353.15 K, x2 = 0.3047 | 749.6 | – | 1.04
353.15 K, x2 = 0.4587 | 758.1 | – | 0.906
353.15 K, x2 = 0.6419 | 771 | – | 0.763
353.15 K, x2 = 0.7515 | 780.7 | – | 0.684
353.15 K, x2 = 0.8742 | 794.1 | – | 0.602
363.15 K, x2 = 0 | 729.8 | – | 1.14
363.15 K, x2 = 0.1662 | 736.1 | – | 1.01
363.15 K, x2 = 0.3047 | 742.4 | – | 0.909
363.15 K, x2 = 0.4587 | 750.8 | – | 0.805
363.15 K, x2 = 0.6419 | 763.4 | – | 0.687
363.15 K, x2 = 0.7515 | 773 | – | 0.623
363.15 K, x2 = 0.8742 | 786.1 | – | 0.546
373.15 K, x2 = 0 | 723 | – | 1
373.15 K, x2 = 0.1662 | 729 | – | 0.891
373.15 K, x2 = 0.3047 | 735.2 | – | 0.811
373.15 K, x2 = 0.4587 | 743.5 | – | 0.725
373.15 K, x2 = 0.6419 | 755.8 | – | 0.628
373.15 K, x2 = 0.7515 | 765.2 | – | 0.567
373.15 K, x2 = 0.8742 | 778.1 | – | 0.499
